Holding throughout (test): BIO3-BIO1 mutant enzyme activity in the presence of herbicide, percentage inhibition (fluorometric DAPA assay)
Common to all, as to format: biochemical
Holding throughout (details): read-out: percentage inhibition

Test [1] deals with T1, Arabidopsis thaliana BIO3-BIO1 (BioDA) mutants (Arabidopsis thaliana, UniProt B0F481, A609F).
T1 construct: with the predicted N-terminal mitochondrial transit peptide removed; 6xHis-tag (N); thrombin cleavage site (N); made in house; host or cells: E. coli BL21 (DE3) bioA
T1 sequence (B0F481 23-833 A609F): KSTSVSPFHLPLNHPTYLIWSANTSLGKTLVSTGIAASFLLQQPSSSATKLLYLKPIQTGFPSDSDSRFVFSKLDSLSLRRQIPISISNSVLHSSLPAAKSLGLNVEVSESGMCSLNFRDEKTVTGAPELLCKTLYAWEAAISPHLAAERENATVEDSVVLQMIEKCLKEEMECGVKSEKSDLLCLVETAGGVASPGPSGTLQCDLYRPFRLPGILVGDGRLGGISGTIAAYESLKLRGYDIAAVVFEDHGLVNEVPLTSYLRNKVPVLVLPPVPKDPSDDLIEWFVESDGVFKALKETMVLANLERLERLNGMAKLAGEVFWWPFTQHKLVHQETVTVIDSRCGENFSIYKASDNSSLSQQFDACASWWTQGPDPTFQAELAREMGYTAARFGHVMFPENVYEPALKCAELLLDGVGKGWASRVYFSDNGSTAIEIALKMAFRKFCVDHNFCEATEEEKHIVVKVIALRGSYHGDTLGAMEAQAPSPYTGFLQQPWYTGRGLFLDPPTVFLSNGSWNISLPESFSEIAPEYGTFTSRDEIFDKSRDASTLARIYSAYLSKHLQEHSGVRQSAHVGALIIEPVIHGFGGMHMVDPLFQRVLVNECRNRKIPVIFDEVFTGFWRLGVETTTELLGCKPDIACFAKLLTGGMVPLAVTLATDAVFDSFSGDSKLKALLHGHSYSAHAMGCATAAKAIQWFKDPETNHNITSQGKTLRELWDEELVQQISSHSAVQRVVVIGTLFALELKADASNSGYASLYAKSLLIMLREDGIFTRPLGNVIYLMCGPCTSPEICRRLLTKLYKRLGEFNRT
The source says:
(§1) A pet-24 plasmid containing a DNA sequence encoding each identified variant mutant of BIO3-BIO1 derived from Arabidopsis thaliana from example 5 above, as shown in Table 13 below and as shown in full in SEQ ID NOs: 15 to 155, codon-optimised for expression in E. coli, with an N-terminal 6×His-tag and thrombin cleavage site and under control of a T7 promoter, and was synthesised by Twist Bioscience, in a similar manner to SEQ ID NO:311. These plasmids were then expressed in E. coli BL21 (DE3) bioA with 50 μg/mL kanamycin and 25 μg/mL chloramphenicol selection. Overnight cultures grown at 37° C. were used to inoculate 8×500 mL AIM in shake flasks at a ratio of 1:100. Cultures were grown at 37° C., 200 rpm for 3.5 hours and then overnight at 20° C. Cells were harvested by centrifugation for 30 minutes at 10 000 g. Cells were stored at −80° C. until extraction. 30 g of cell pellet from was thawed in 120 mL of IMAC buffer A (20 mM HEPES pH7.5, 25 mM imidazole, 500 mM sodium chloride, 0.15 mM pyridoxal phosphate, 0.5 mM TCEP, 1× complete Protease Inhibitor Tablet (Roche)). The resuspension was passed through a cell disrupter at 18 000 PSI and centrifuged at 50 000 g for 25 minutes at 4° C. The His-tagged BIO3-BIO1 protein was purified from the extract supernatant on an AKTA avant chromatography system (Cytiva) using a HisTrap FF column and eluted in IMAC buffer B ((20 mM HEPES pH7.5, 500 mM imidazole, 500 mM sodium chloride, 0.15 mM pyridoxal phosphate, 0.5 mM TCEP) followed by SEC using a HiLoad 26/60 Superdex200 column in SEC buffer (25 mM HEPES pH7.5, 150 mM sodium chloride, 0.15 mM pyridoxal phosphate, 0.5 mM TCEP). Protein concentration was measured and calculated using the absorbance at 280 nm. Extracts were diluted 1 in 4 and 10 uL was analysed by SDS PAGE.
(§2) To measure BIO3-BIO1 mutant enzyme activity in the presence of herbicide, herbicides were incubated with 20 μL of enzyme mix (100 mM EPPS pH 8.6, 0.1 mM pyridoxal phosphate, 0.1 mg/mL BSA, 50 nM BIO3-BIO1 enzyme) for 10 minutes at 20° C. in a well of a 96-well half-area black plate, followed by the addition of 20 μL of substrate mix (final concentration of 100 mM EPPS pH 8.6, 0.1 mM pyridoxal phosphate, 0.1 mg/mL BSA, 100 μM spermidine, 20 μM KAPA, 100 mM NaCO3) and further incubation for 75 minutes at 20° C. The reaction was terminated by the addition of 50 μL of derivatisation mix (final concentration of 250 mM borate NaOH pH 9.4, 3.6 mM o-phthalaldehyde, 7 mM β-mercaptoethanol, 17% (v/v) ethanol, 3.6% (v/v) methanol). The fluorescent product produced by the reaction of DAPA with o-phthalaldehyde and 7 mM β-mercaptoethanol was measured at 470 nm after excitation at 410 nm. The percentage inhibition was calculated as the activity in the presence of one of three concentrations of each herbicide compound A to M (note that the compounds labelled as A to M are identified hereinabove in the relevant section of the description) as a percentage of the activity in DMSO (Table 12 and 13). The percentage activity versus WT was also calculated and is shown in Table 13 and 14 (NT indicates mutation not tested in table 13, note that these mutations are tested at different compound concentrations for compounds L, M and C, and the results are shown in table 14).

For test [2], the target named is T2, Arabidopsis thaliana BIO3-BIO1 (BioDA) mutants (Arabidopsis thaliana, UniProt B0F481, F348D).
T2 construct: with the predicted N-terminal mitochondrial transit peptide removed; 6xHis-tag (N); thrombin cleavage site (N); made in house; host or cells: E. coli BL21 (DE3) bioA
T2 sequence (B0F481 23-833 F348D): as the sequence (B0F481 23-833 A609F) above, with F326D, F587A counted along it
Description: as §1, §2

For test [3], the target named is T3, Arabidopsis thaliana BIO3-BIO1 (BioDA) mutants (Arabidopsis thaliana, UniProt B0F481, S509Y).
T3 construct: with the predicted N-terminal mitochondrial transit peptide removed; 6xHis-tag (N); thrombin cleavage site (N); made in house; host or cells: E. coli BL21 (DE3) bioA
T3 sequence (B0F481 23-833 S509Y): as the sequence (B0F481 23-833 A609F) above, with S487Y, F587A counted along it
Description: as §1, §2

In test [4] the target is T4, Arabidopsis thaliana BIO3-BIO1 (BioDA) mutants (Arabidopsis thaliana, UniProt B0F481, F348Q).
T4 construct: with the predicted N-terminal mitochondrial transit peptide removed; 6xHis-tag (N); thrombin cleavage site (N); made in house; host or cells: E. coli BL21 (DE3) bioA
T4 sequence (B0F481 23-833 F348Q): as the sequence (B0F481 23-833 A609F) above, with F326Q, F587A counted along it
Description: as §1, §2

In test [5] the target is T5, Arabidopsis thaliana BIO3-BIO1 (BioDA) mutants (Arabidopsis thaliana, UniProt B0F481, P421A).
T5 construct: with the predicted N-terminal mitochondrial transit peptide removed; 6xHis-tag (N); thrombin cleavage site (N); made in house; host or cells: E. coli BL21 (DE3) bioA
T5 sequence (B0F481 23-833 P421A): as the sequence (B0F481 23-833 A609F) above, with P399A, F587A counted along it
Description: as §1, §2

The target of test [6] is T6, Arabidopsis thaliana BIO3-BIO1 (BioDA) mutants (Arabidopsis thaliana, UniProt B0F481, S509E).
T6 construct: with the predicted N-terminal mitochondrial transit peptide removed; 6xHis-tag (N); thrombin cleavage site (N); made in house; host or cells: E. coli BL21 (DE3) bioA
T6 sequence (B0F481 23-833 S509E): as the sequence (B0F481 23-833 A609F) above, with S487E, F587A counted along it
Description: as §1, §2

The target of test [7] is T7, Arabidopsis thaliana BIO3-BIO1 (BioDA) mutants (Arabidopsis thaliana, UniProt B0F481, S509F).
T7 construct: with the predicted N-terminal mitochondrial transit peptide removed; 6xHis-tag (N); thrombin cleavage site (N); made in house; host or cells: E. coli BL21 (DE3) bioA
T7 sequence (B0F481 23-833 S509F): as the sequence (B0F481 23-833 A609F) above, with S487F, F587A counted along it
Description: as §1, §2

Test [8] addresses T8, Arabidopsis thaliana BIO3-BIO1 (BioDA) mutants (Arabidopsis thaliana, UniProt B0F481, Y511Q).
T8 construct: with the predicted N-terminal mitochondrial transit peptide removed; 6xHis-tag (N); thrombin cleavage site (N); made in house; host or cells: E. coli BL21 (DE3) bioA
Description: as §1, §2

Test [9] addresses T9, Arabidopsis thaliana BIO3-BIO1 (BioDA) mutants (Arabidopsis thaliana, UniProt B0F481, W391M).
T9 construct: with the predicted N-terminal mitochondrial transit peptide removed; 6xHis-tag (N); thrombin cleavage site (N); made in house; host or cells: E. coli BL21 (DE3) bioA
Description: as §1, §2

In test [10] the target is T10, Arabidopsis thaliana BIO3-BIO1 (BioDA) mutants (Arabidopsis thaliana, UniProt B0F481, S509I).
T10 construct: with the predicted N-terminal mitochondrial transit peptide removed; 6xHis-tag (N); thrombin cleavage site (N); made in house; host or cells: E. coli BL21 (DE3) bioA
T10 sequence (B0F481 23-833 S509I): as the sequence (B0F481 23-833 A609F) above, with S487I, F587A counted along it
Description: as §1, §2

For test [11], the target named is T11, Arabidopsis thaliana BIO3-BIO1 (BioDA) mutants (Arabidopsis thaliana, UniProt B0F481, A609H).
T11 construct: with the predicted N-terminal mitochondrial transit peptide removed; 6xHis-tag (N); thrombin cleavage site (N); made in house; host or cells: E. coli BL21 (DE3) bioA
T11 sequence (B0F481 23-833 A609H): as the sequence (B0F481 23-833 A609F) above, with F587H counted along it
Description: as §1, §2

For test [12], the target named is T12, Arabidopsis thaliana BIO3-BIO1 (BioDA) mutants (Arabidopsis thaliana, UniProt B0F481, S509A).
T12 construct: with the predicted N-terminal mitochondrial transit peptide removed; 6xHis-tag (N); thrombin cleavage site (N); made in house; host or cells: E. coli BL21 (DE3) bioA
T12 sequence (B0F481 23-833 S509A): as the sequence (B0F481 23-833 A609F) above, with S487A, F587A counted along it
Description: as §1, §2

This note sets out measurements from patent US20260226493A1, “HERBICIDE RESISTANT PLANTS” (SYNGENTA CROP PROTECTION AG, priority 2023, published 2026).

T8 sequence (B0F481 23-833 Y511Q): as the sequence (B0F481 23-833 A609F) above, with Y489Q, F587A counted along it
T9 sequence (B0F481 23-833 W391M): as the sequence (B0F481 23-833 A609F) above, with W369M, F587A counted along it

As to `CCOC(=O)c1nn(-c2ccc3c(c2)OC(F)(F)C(F)(F)O3)c2cccc(C(C)=O)c2c1=O` [Compound A, ethyl 5-acetyl-4-oxo-1-(2,2,3,3-tetrafluoro-1,4-benzodioxin-6-yl)cinnoline-3-carboxylate], the inhibition at 1 µM in [1] was found to be 6%; in [2], 0%; in [3], 3%; in test [4] it was 7%; in [5], 0%; in test [6], 6%. Besides, the inhibition at 1 µM in [7] stood at 6%; in test [8], 21%; in test [9], 85%; in test [10], 0%; in test [11], 0%; in test [12], 0%.

On to `CCn1c(C)c(-c2ccc(F)cc2F)c(=O)c(C(=O)O)c1-c1ccc(Cl)c(Cl)c1` [Compound C, 2-(3,4-dichlorophenyl)-5-(2,4-difluorophenyl)-1-ethyl-6-methyl-4-oxo-pyridine-3-carboxylic acid], for which the inhibition at 0.2 µM in test [1] came to 5%; in [2], 8%; in [3], 37%; in test [4], 3%; in test [5], 16%; in [6], 57%. For the same compound, the inhibition at 0.2 µM in test [7] stood at 24%; in test [8] it was 78%; in [9], 39%; in [10] it was 38%; in test [11] it was 0%; in test [12], 0%. Also, the inhibition at 1 µM in test [1] came to 5%; in [2], 13%; in test [3] it was 76%; in test [4], 0%; in [5], 16%; in test [6] it was 87%. Moreover, the inhibition at 1 µM in test [7] worked out at 82%; in test [8], 97%; in test [9] it was 24%; in [10], 84%; in [11], 7%; in test [12] it was 63%. Besides, the inhibition at 5 µM in [1] was found to be 20%; in [2], 0%; in test [3], 95%; in test [4], 25%; in test [5], 35%; in test [6], 97%. For the same compound, the inhibition at 5 µM in test [7] was determined as 98%; in [8], 98%; in test [9] it was 63%; in [10] it was 99%; in test [11] it was 20%; in test [12], 95%.

In general, inhibition refers to the relative decrease from the control value, in per cent.
